Six compounds from article PMC9645390, “Amphiphilic stilbene derivatives attenuate the neurotoxicity of soluble Aβ42 oligomers by controlling their interactions with cell membranes” (Chemical Science, 2022) can be followed below.

“Also recorded” adds a separate entry of the source.

The subject of data set [1] is SH-SY5Y cells. In words: Cell toxicity studies in SH-SY5Y cells. The settings on record: 10 µM. The class given is cell-based, human. The text has this: Encouraged by the ability of the developed amphiphilic compounds to attenuate the neurotoxicity of Cu–Aβ species, we sought out to study the possible molecular mechanisms for this beneficial effect. The Aβ oligomers were reported to interact with cell membranes in various ways, such as binding to receptors on cell membranes,[49,50] inserting into membranes,[51] or even showing cellular uptake via endocytosis.[52] The abnormal interactions between Aβ oligomers and neuron cells, which could disrupt the neuronal ion homeostasis and neuron cell membrane integrity, might be why Aβ oligomers are highly neurotoxic.[53–55] Moreover, molecules that can disrupt interactions between oligomers and cell membranes are promising candidates for drug development.[56,57] Thus, we proceeded to probe the interactions of the Aβ42 oligomers with SH-SY5Y cellular membranes, in the absence and presence of the compounds, via confocal microscopy. […] Moreover, a lower concentration of Aβ42 (5 μM) or Aβ42–Cu (5 μM) were chosen to avoid significant cell death (Fig. S9b ^†). Before investigating the neuroprotective effect of our compounds, we have also confirmed that Aβ aggregates interact tightly with the cell membranes, as shown via co-staining with a membrane specific dye (Fig. S10 ^†). Subsequently, SH-SY5Y cells were treated with Aβ oligomers or a combination of Aβ oligomers and compounds for 24 h, followed by the immunofluorescence staining with the CF594-labeled anti-Aβ antibody HJ 3.4 (Fig. 10) and nuclei staining, shown in the red and blue channels, respectively. Compared to the untreated group, the Aβ oligomers were found mainly bound to cell membranes. […] To understand this unusual behavior, we posited that the Aβ oligomers would start the fibrilization process when incubated in the cell media. […] Therefore, we proceeded to probe if our compounds could prevent the binding of Aβ fibrils to cell membranes. […] Given these encouraging results, we moved to study if the amphiphilic compounds can further control the interactions between Cu–Aβ species and cell membranes. Firstly, when SH-SY5Y cells were treated with Aβ monomers for 48 h, the aggregated Aβ species interacting with cell membranes were observed (Fig. 11a). […] However, these aggregates are still smaller than the insoluble fibrils (Fig. S11 ^†), indicating they are still soluble oligomeric Aβ species.
11. Cell toxicity studies in SH-SY5Y cells
Figure S9. Cell toxicity studies in SH-SY5Y cells. a) [ZY- 12-MT] = [ZY-15-OMe] = [ZY-15-MT] = [ZY-5-OMe] =
10 µM. b) Average cell numbers in presence of 5 µM Aβ42 monomer, 5 µM (Aβ42 monomer + Cu2+), 5 µM (Aβ42
monomer + Cu2+ + ZY-15-MT) and 5 µM (Aβ42 monomer + Cu2+ + ZY-15-OMe).
(1 picture or pasted object on this page, not shown here)

Data set [2] deals with Aβ oligomers–SH-SY5Y cell membrane interactions. Put plainly: Confocal imaging of Aβ oligomers binding to SH-SY5Y cell membranes. The settings on record: 5 μM Aβ oligomers + 5 μM compound, 24 h; for Aβ oligomers bound to cell membranes (in words): CF594-HJ 3.4 staining. It is filed as cell-based, human. From the text:
Encouraged by the ability of the developed amphiphilic compounds to attenuate the neurotoxicity of Cu–Aβ species, we sought out to study the possible molecular mechanisms for this beneficial effect. The Aβ oligomers were reported to interact with cell membranes in various ways, such as binding to receptors on cell membranes,[49,50] inserting into membranes,[51] or even showing cellular uptake via endocytosis.[52] The abnormal interactions between Aβ oligomers and neuron cells, which could disrupt the neuronal ion homeostasis and neuron cell membrane integrity, might be why Aβ oligomers are highly neurotoxic.[53–55] Moreover, molecules that can disrupt interactions between oligomers and cell membranes are promising candidates for drug development.[56,57] Thus, we proceeded to probe the interactions of the Aβ42 oligomers with SH-SY5Y cellular membranes, in the absence and presence of the compounds, via confocal microscopy. […] Moreover, a lower concentration of Aβ42 (5 μM) or Aβ42–Cu (5 μM) were chosen to avoid significant cell death (Fig. S9b ^†). Before investigating the neuroprotective effect of our compounds, we have also confirmed that Aβ aggregates interact tightly with the cell membranes, as shown via co-staining with a membrane specific dye (Fig. S10 ^†). […]
Fig. 10 (a) SH-SY5Y cells were treated with 5 μM Aβ oligomers in the presence or absence of 5 μM ZY-15-MT or 5 μM ZY-15-OMe for 24 h before imaging. Red and blue fluorescence indicate the Aβ oligomers and nuclei, respectively. […] (b) Three independent experiments were subjected for the statistical analysis and analyzed by one-way ANOVA (*P < 0.05, ***P < 0.001).
RCSB database and optimized by minimal minimization with the OPLS3 force field using the Protein Preparation Wizard program. […] The calculated poses were ranked by both the docking score and Glide e-model energy, and the structures with the best docking scores and Glide e-model energies were rendered in […]

The test system of data set [3] is mouse neuroblastoma N2a cells. Put plainly: Alamar Blue cytotoxicity assay in N2a cells. The class given is cell-based. The settings on record: 2 to 20 μM. A general note: The colour change of resazurin is a common sign of viable cells or microbes.

With `COc1cc(/C=C/c2ccc(-c3ccc(N(C)C)cc3)s2)cc(CN2CCN(C)CCN(C)CC2)c1O` [ZY-5-OMe], in data set [1], the “toxicity towards SH-SY5Y cells (in words)” value is listed as “not toxic towards SH-SY5Y cells”.
Still for that read-out and setting: with `CN1CCN(C)CCN(Cc2cc(-c3ccc(/C=C/c4ccc(N(C)C)cc4)s3)ccc2O)CC1` [ZY-12-MT] the entry was “not toxic towards SH-SY5Y cells”.
Take `CN1CCN(C)CCN(Cc2cc(/C=C/c3ccc(-c4ccc(C=O)cc4)s3)ccc2O)CC1` [ZY-15-MT]: in data set [2], the “decrease of the numbers of Aβ oligomers binding to the cell membranes” value is “about 50%” and the “Aβ oligomers bound to cell membranes (in words)” value is reported as “fewer numbers of Aβ oligomers bound to the cell membranes”. For the same compound, the “toxicity towards SH-SY5Y cells (in words)” value in data set [1] is on record as “not toxic towards SH-SY5Y cells”.
`COc1cc(/C=C/c2ccc(-c3ccc(C=O)cc3)s2)cc(CN2CCN(C)CCN(C)CC2)c1O` [ZY-15-OMe]: the “Aβ oligomers bound to cell membranes (in words)” value in data set [2] is reported as “fewer numbers of Aβ oligomers bound to the cell membranes”. For the same compound, the “toxicity towards SH-SY5Y cells (in words)” value in data set [1] is “not toxic towards SH-SY5Y cells”.
As for `COc1cc(OC)cc(-c2ccc(/C=C/c3cc(CN4CCN(C)CCN(C)CC4)c(O)c(CN4CCN(C)CCN(C)CC4)c3)cc2)c1` [ZY-17-DT], the “cytotoxicity (in words)” value in data set [3] is “higher cytotoxicity than others”.
The same measure, in the same setting: with `COc1cc(OC)cc(-c2ccc(/C=C/c3cc(CN4CCN(C)CCN(C)CC4)c(O)c(OC)c3)cc2)c1` [ZY-17-OMe] the entry was “higher cytotoxicity than others; also recorded: the highest toxicity”.
